Laboratory results: patent US20250275540A1, “USE OF PROTOPORPHYRINOGEN OXIDASE” (BEIJING DABEINONG BIOTECHNOLOGY CO., LTD., priority 2022, published 2025)

Tested on: transgenic soybean plants
Assay: Detection of the herbicide tolerance of the transgenic soybean plants
Format: in vivo
Settings: for The grade of pesticide damage/plant: 0 / The grade of pesticide damage/plant: 1 / The grade of pesticide damage/plant: 2 / The grade of pesticide damage/plant: 3: 7 DAT
[1] = genotype Control vector, 360 g ai/ha
[2] = genotype Control vector, 720 g ai/ha
[3] = genotype PPO-AP-01, 360 g ai/ha
[4] = genotype PPO-AP-01, 720 g ai/ha
[5] = genotype PPO-EC-01, 360 g ai/ha
[6] = genotype PPO-EC-01, 720 g ai/ha

Q: For `CCOc1cc(Oc2ccc(C(F)(F)F)cc2Cl)ccc1[N+](=O)[O-]` [oxyfluorfen, 2-chloro-1-(3-ethoxy-4-nitrophenoxy)-4-trifluoromethylbenzene], which “The grade of pesticide damage/plant: 0” value (genotype CK, 360 g ai/ha) is on record?
A: 0 plant

Q: And the “The grade of pesticide damage/plant: 1” value (genotype CK, 360 g ai/ha)?
A: 0 plant

Q: What about the “The grade of pesticide damage/plant: 2” value (genotype CK, 360 g ai/ha) of the same compound?
A: 0 plant

Q: What about the “The grade of pesticide damage/plant: 3” value (genotype CK, 360 g ai/ha) of the same compound?
A: 16 plant

Q: And the “The grade of pesticide damage/plant: 0” value (genotype CK, 720 g ai/ha)?
A: 0 plant

Q: What about the “The grade of pesticide damage/plant: 1” value (genotype CK, 720 g ai/ha) of the same compound?
A: 0 plant

Q: And the “The grade of pesticide damage/plant: 2” value (genotype CK, 720 g ai/ha)?
A: 0 plant

Q: What about the “The grade of pesticide damage/plant: 3” value (genotype CK, 720 g ai/ha) of the same compound?
A: 16 plant

Q: And the “The grade of pesticide damage/plant: 0” value [1]?
A: 0 plant

Q: And the “The grade of pesticide damage/plant: 1” value [1]?
A: 0 plant

Q: And the “The grade of pesticide damage/plant: 2” value [1]?
A: 0 plant

Q: And the “The grade of pesticide damage/plant: 3” value [1]?
A: 16 plant

Q: What about the “The grade of pesticide damage/plant: 0” value [2] of the same compound?
A: 0 plant

Q: What about the “The grade of pesticide damage/plant: 1” value [2] of the same compound?
A: 0 plant

Q: And the “The grade of pesticide damage/plant: 2” value [2]?
A: 0 plant

Q: And the “The grade of pesticide damage/plant: 3” value [2]?
A: 16 plant

Q: And the “The grade of pesticide damage/plant: 0” value [3]?
A: 0 plant

Q: What about the “The grade of pesticide damage/plant: 1” value [3] of the same compound?
A: 0 plant

Q: And the “The grade of pesticide damage/plant: 2” value [3]?
A: 8 plant

Q: And the “The grade of pesticide damage/plant: 3” value [3]?
A: 8 plant

Q: And the “The grade of pesticide damage/plant: 0” value [4]?
A: 0 plant

Q: And the “The grade of pesticide damage/plant: 1” value [4]?
A: 0 plant

Q: And the “The grade of pesticide damage/plant: 2” value [4]?
A: 0 plant

Q: And the “The grade of pesticide damage/plant: 3” value [4]?
A: 16 plant

Q: And the “tolerance to the herbicide (in words)” value (genotype PPO-AP-01, four-fold field concentration)?
A: no tolerance

Q: What about the “share of the plants that exhibited no tolerance” value (genotype PPO-AP-01, two-fold field concentration) of the same compound?
A: 50%

Q: And the “The grade of pesticide damage/plant: 0” value [5]?
A: 16 plant

Q: What about the “The grade of pesticide damage/plant: 1” value [5] of the same compound?
A: 0 plant

Q: And the “The grade of pesticide damage/plant: 2” value [5]?
A: 0 plant

Q: And the “The grade of pesticide damage/plant: 3” value [5]?
A: 0 plant

Q: And the “The grade of pesticide damage/plant: 0” value [6]?
A: 13 plant

Q: And the “The grade of pesticide damage/plant: 1” value [6]?
A: 3 plant

Q: What about the “The grade of pesticide damage/plant: 2” value [6] of the same compound?
A: 0 plant

Q: And the “The grade of pesticide damage/plant: 3” value [6]?
A: 0 plant

Q: And the “The grade of pesticide damage/plant: 0” value (genotype PPOA-01, 360 g ai/ha)?
A: 16 plant

Q: What about the “The grade of pesticide damage/plant: 1” value (genotype PPOA-01, 360 g ai/ha) of the same compound?
A: 0 plant

Q: What about the “The grade of pesticide damage/plant: 2” value (genotype PPOA-01, 360 g ai/ha) of the same compound?
A: 0 plant

Q: What about the “The grade of pesticide damage/plant: 3” value (genotype PPOA-01, 360 g ai/ha) of the same compound?
A: 0 plant

Q: What about the “The grade of pesticide damage/plant: 0” value (genotype PPOA-01, 720 g ai/ha) of the same compound?
A: 15 plant

Q: What about the “The grade of pesticide damage/plant: 1” value (genotype PPOA-01, 720 g ai/ha) of the same compound?
A: 1 plant

Q: And the “The grade of pesticide damage/plant: 2” value (genotype PPOA-01, 720 g ai/ha)?
A: 0 plant

Q: And the “The grade of pesticide damage/plant: 3” value (genotype PPOA-01, 720 g ai/ha)?
A: 0 plant

Q: What about the “The grade of pesticide damage/plant: 0” value (genotype PPOB-01, 360 g ai/ha) of the same compound?
A: 16 plant

Q: And the “The grade of pesticide damage/plant: 1” value (genotype PPOB-01, 360 g ai/ha)?
A: 0 plant

Q: And the “The grade of pesticide damage/plant: 2” value (genotype PPOB-01, 360 g ai/ha)?
A: 0 plant

Q: What about the “The grade of pesticide damage/plant: 3” value (genotype PPOB-01, 360 g ai/ha) of the same compound?
A: 0 plant

Q: What about the “The grade of pesticide damage/plant: 0” value (genotype PPOB-01, 720 g ai/ha) of the same compound?
A: 16 plant

Q: What about the “The grade of pesticide damage/plant: 1” value (genotype PPOB-01, 720 g ai/ha) of the same compound?
A: 0 plant

Q: And the “The grade of pesticide damage/plant: 2” value (genotype PPOB-01, 720 g ai/ha)?
A: 0 plant

Q: What about the “The grade of pesticide damage/plant: 3” value (genotype PPOB-01, 720 g ai/ha) of the same compound?
A: 0 plant

Q: And the “The grade of pesticide damage/plant: 0” value (genotype PPOC-01, 360 g ai/ha)?
A: 16 plant

Q: And the “The grade of pesticide damage/plant: 1” value (genotype PPOC-01, 360 g ai/ha)?
A: 0 plant

Q: And the “The grade of pesticide damage/plant: 2” value (genotype PPOC-01, 360 g ai/ha)?
A: 0 plant

Q: What about the “The grade of pesticide damage/plant: 3” value (genotype PPOC-01, 360 g ai/ha) of the same compound?
A: 0 plant

Q: What about the “The grade of pesticide damage/plant: 0” value (genotype PPOC-01, 720 g ai/ha) of the same compound?
A: 16 plant

Q: What about the “The grade of pesticide damage/plant: 1” value (genotype PPOC-01, 720 g ai/ha) of the same compound?
A: 0 plant

Q: And the “The grade of pesticide damage/plant: 2” value (genotype PPOC-01, 720 g ai/ha)?
A: 0 plant

Q: What about the “The grade of pesticide damage/plant: 3” value (genotype PPOC-01, 720 g ai/ha) of the same compound?
A: 0 plant

Q: And the “The grade of pesticide damage/plant: 0” value (genotype PPOD-01, 360 g ai/ha)?
A: 16 plant

Q: And the “The grade of pesticide damage/plant: 1” value (genotype PPOD-01, 360 g ai/ha)?
A: 0 plant

Q: What about the “The grade of pesticide damage/plant: 2” value (genotype PPOD-01, 360 g ai/ha) of the same compound?
A: 0 plant

Q: And the “The grade of pesticide damage/plant: 3” value (genotype PPOD-01, 360 g ai/ha)?
A: 0 plant

Q: What about the “The grade of pesticide damage/plant: 0” value (genotype PPOD-01, 720 g ai/ha) of the same compound?
A: 16 plant

Q: What about the “The grade of pesticide damage/plant: 1” value (genotype PPOD-01, 720 g ai/ha) of the same compound?
A: 0 plant

Q: And the “The grade of pesticide damage/plant: 2” value (genotype PPOD-01, 720 g ai/ha)?
A: 0 plant

Q: What about the “The grade of pesticide damage/plant: 3” value (genotype PPOD-01, 720 g ai/ha) of the same compound?
A: 0 plant

Q: And the “The grade of pesticide damage/plant: 0” value (genotype PPOE-01, 360 g ai/ha)?
A: 16 plant

Q: What about the “The grade of pesticide damage/plant: 1” value (genotype PPOE-01, 360 g ai/ha) of the same compound?
A: 0 plant

Q: And the “The grade of pesticide damage/plant: 2” value (genotype PPOE-01, 360 g ai/ha)?
A: 0 plant

Q: And the “The grade of pesticide damage/plant: 3” value (genotype PPOE-01, 360 g ai/ha)?
A: 0 plant

Q: And the “The grade of pesticide damage/plant: 0” value (genotype PPOE-01, 720 g ai/ha)?
A: 14 plant

Q: And the “The grade of pesticide damage/plant: 1” value (genotype PPOE-01, 720 g ai/ha)?
A: 2 plant

Q: And the “The grade of pesticide damage/plant: 2” value (genotype PPOE-01, 720 g ai/ha)?
A: 0 plant

Q: What about the “The grade of pesticide damage/plant: 3” value (genotype PPOE-01, 720 g ai/ha) of the same compound?
A: 0 plant

Q: What about the “The grade of pesticide damage/plant: 0” value (genotype PPOF-01, 360 g ai/ha) of the same compound?
A: 16 plant

Q: And the “The grade of pesticide damage/plant: 1” value (genotype PPOF-01, 360 g ai/ha)?
A: 0 plant

Q: And the “The grade of pesticide damage/plant: 2” value (genotype PPOF-01, 360 g ai/ha)?
A: 0 plant

Q: What about the “The grade of pesticide damage/plant: 3” value (genotype PPOF-01, 360 g ai/ha) of the same compound?
A: 0 plant

Q: What about the “The grade of pesticide damage/plant: 0” value (genotype PPOF-01, 720 g ai/ha) of the same compound?
A: 16 plant

Q: What about the “The grade of pesticide damage/plant: 1” value (genotype PPOF-01, 720 g ai/ha) of the same compound?
A: 0 plant

Q: What about the “The grade of pesticide damage/plant: 2” value (genotype PPOF-01, 720 g ai/ha) of the same compound?
A: 0 plant

Q: And the “The grade of pesticide damage/plant: 3” value (genotype PPOF-01, 720 g ai/ha)?
A: 0 plant

Q: And the “tolerance to the herbicide (in words)” value (genotypes PPOA-01 to PPOF-01 and PPO-EC-01, four-fold field concentration)?
A: high-resistant tolerance

Q: And the “tolerance to the herbicide (in words)” value (genotypes PPOA-01 to PPOF-01 and PPO-EC-01, two-fold field concentration)?
A: high-resistant tolerance
